From patent publication US20060292553A1, “Method for study of the genetic and functional variability of HIV and kit for using it” (Bioalliance Pharma, a corporation of France, priority 2004, published 2006)

How the values were obtained:
[1] = tested on: HIV-1 virus of the patient (recombinant virus); assay: Phenoscript phenotyping, recombinant virus of the patient in the presence of drugs; type: cell-based
Description: The principle of the phenotypical tests for resistance is based on the measurement in vitro of the growth of a virus in the patient in the presence of drugs.
Viral RNA derived from the plasma is extracted, then the regions coding for inverse transcriptase and/or protease are amplified using PCR in phenotypical tests. Amplicons are recombined in vitro in a defective vector to form a viral particle. This viral particle is placed in a culture in the presence of increasing concentrations of drugs. The results are expressed in a “fold change” ratio of IC 50 (or IC90) with respect to a control virus which corresponds to the concentration of the drug that inhibits 50% (or 90%) of the viral replication in comparison to the reference wild type virus. The resistance level is defined as a function of thresholds of sensitivity (cut off).
(§1) Tables 2 and 3 below show two examples of samples of plasma in patients 1 and 2, respectively, for which the amplicons generated by the method above have made it possible to implement the genotyping according to the Trugene and Viroseq techniques and phenotyping according to the Phenoscript technique.
The principle of the tests of phenotypical resistance is based on the measurement in vitro of the growth of a virus in the patient in the presence of drug(s)/active agent(s), compared to a reference virus (resistance index). The level of resistance is defined as a function of thresholds of sensitivity (cut off). A second score of 0 to 2 is attributed to each of the three levels of resistance determined by the interpretation. Table 12 summarizes the interpretations given by the main phenotypical tests, PhenoSense and Phenoscript, as a function of their thresholds of sensitivity and assigns a phenotypical score corresponding to the magnitude of resistance.

[2] = tested on: HIV-1 virus of the patient (protease and inverse transcriptase genes); assay: Trugene genotyping, interpretation of resistances from the amplicon of patient plasma; conditions: M184V, T215Y, L63P
Description: (§2) The procedure to generate the first specific amplicon is as follows: • 1) Viral RNA contained in a biological sample is extracted. The biological sample may be derived from a sample from the patient. It may be a blood or serum sample, but may also come from a biological fluid or a biopsy or any other tissue preparation. The biological sample may also come from a viral culture. In a general manner, a biological sample corresponds to all types of samples containing one or several HIV-1 variants. The term “HIV-1 virus” in this Example is used to mean any viral strain belonging to the sub-types B and non-B. • 2) The RNA obtained in (1) is retrotranscribed and amplified with one of the pairs of specific primers in Table 1 below to obtain an amplicon characterized by: […]
as §1
The Trugene HIV-1 genotyping kit is used to determine the genotype of the virus of sub-types B and non-B. The RNA is extracted using plasma from patients, according to known techniques, the viral RNA is retrotranscribed and amplified using PCR with primers specific for the pol gene making possible amplification of a sequence of nucleic acids of 1300 pb comprising, for the protease, codons 1 to 99 and comprising, for the inverse transcriptase, codons 1 to 247. The product of RT-PCR thus obtained is used in each of the 16 sequencing reactions by using the principle of CLIP™ reaction, sequencing technique using labeled primers (dye primers). Four pairs of different primers are used for this sequencing method, two pairs for the sequencing of the protease and two other pairs for the sequencing of the inverse transcriptase. Each sequence reaction is initiated by a specific dye primer (CLIP™), then interrupted by the corresponding labeled nucleotide. All of the fragments synthesized are then separated on electrophoresis gel and analyzed by an automatic sequencer specifically indicating the fragments ending with each of the four labeled nucleotides. The sequences, once reconstituted, are compared to the sequence of a reference virus using an alignment software.
(§3) The measurement of genetic variability is carried out using a specific sequence of nucleic acids amplified according to aspects of the method, then analyzed according to known sequencing techniques (Trugene, ViroSeq). Mutations in the genes of the protease and of the inverse transcriptase identified by these tests are interpreted according to algorithms that are updated regularly. A first score of 0 to 2 is attributed to each of the three levels of resistance determined by the interpretation. Table 11 below summarizes the interpretations given by the Trugene and ViroSeq tests as a function of the mutations identified and of the anti-retroviruses (ARV) used and assigns a genotypical score corresponding to the magnitude of the resistance.

[3] = tested on: HIV-1 virus of the patient (protease and inverse transcriptase genes); assay: ViroSeq genotyping, evidence of resistance from the amplicon of patient plasma; conditions: M184V, T215Y, L63P
Description: as §2, §1
The RNA is extracted using plasmas from patients according to a known extraction technique based on the affinity of RNA with respect to silica columns, the viral RNA is retrotranscribed and amplified using PCR with primers specific to the pol gene making possible amplification of a sequence of nucleic acids of 1800 pb comprising, for the protease, codons 1 to 99 and comprising, for the inverse transcriptase, codons 1 to 335. The DNA thus obtained is then sequenced with seven different primers according to the Big Dye™ Terminator technology, a sequencing technique using dye terminators. The sequence reaction is initiated by each specific non-labeled primer, then interrupted by each of the labeled nucleotides. All of the fragments synthesized are then separated on electrophoresis gel. The color of the fluorochrome will then be registered using an automatic sequencer (ABI Prism 377 DNA sequencer), specifically indicating the fragments ending with each of the four labeled nucleotides. The sequences, once reconstituted, are compared to the sequence of a reference virus using an alignment software.
as §3

[4] = Patient 1 plasma sample, mutations D67N, K70R, K219E, K103N, V108I, P225H
[5] = Patient 2 plasma sample, mutations M41L, L210W, M36L

For CC(C)(C)NC(=O)[C@@H]1CN(Cc2cccnc2)CCN1C[C@@H](O)C[C@@H](Cc1ccccc1)C(=O)N[C@H]1c2ccccc2C[C@H]1O [IDV], the “Phenoscript Contribution to the therapeutic response” value (shortened to “Phenoscript Contribution”) ([1]; Patient 1 plasma sample) was “Probable”, the “Phenoscript Contribution” value ([1]; Patient 2 plasma sample) was “Probable” and the “Trugene Interpretation of resistances” value [2, 4] was “No resistance”. For the same compound, the “Trugene Interpretation of resistances” value [2, 5] was “No resistance”, the “Viroseq Evidence of resistance” value [3, 4] was “Zero” and the “Viroseq Evidence of resistance” value [3, 5] was “Zero”.

In the case of Cc1cccc(C)c1OCC(=O)N[C@@H](Cc1ccccc1)[C@@H](O)C[C@H](Cc1ccccc1)NC(=O)[C@H](C(C)C)N1CCCNC1=O [LPV], the “Phenoscript Contribution” value ([1]; Patient 1 plasma sample) is reported as “Probable”, the “Phenoscript Contribution” value ([1]; Patient 2 plasma sample) is reported as “Probable” and the “Trugene Interpretation of resistances” value [2, 4] is reported as “No resistance”. For the same compound, the “Trugene Interpretation of resistances” value [2, 5] was “No resistance”, the “Viroseq Evidence of resistance” value [3, 4] was “Zero” and the “Viroseq Evidence of resistance” value [3, 5] was “Zero”.

With Nc1ccn([C@@H]2CS[C@H](CO)O2)c(=O)n1 [3TC] the “Phenoscript Contribution” value ([1]; Patient 1 plasma sample) was “Improbable”, the “Phenoscript Contribution” value ([1]; Patient 2 plasma sample) was “Improbable” and the “Trugene Interpretation of resistances” value [2, 4] was “Resistance”. For the same compound, the “Trugene Interpretation of resistances” value [2, 5] was “Resistance”, the “Viroseq Evidence of resistance” value [3, 4] was “High” and the “Viroseq Evidence of resistance” value [3, 5] was “High”.

For CC(C)Nc1cccnc1N1CCN(C(=O)c2cc3cc(NS(C)(=O)=O)ccc3[nH]2)CC1 [DLV], the “Trugene Interpretation of resistances” value [2, 4] was “Resistance”, the “Trugene Interpretation of resistances” value [2, 5] was “No resistance” and the “Viroseq Evidence of resistance” value [3, 4] was “High”. For the same compound, the “Viroseq Evidence of resistance” value [3, 5] was “Zero”.

For Nc1ccn([C@H]2CC[C@@H](CO)O2)c(=O)n1 [ddC], the “Viroseq Evidence of resistance” value [3, 4] was “High” and the “Viroseq Evidence of resistance” value [3, 5] was “High”.

With O=c1[nH]cnc2c1ncn2[C@H]1CC[C@@H](CO)O1 [ddI] the “Phenoscript Contribution” value ([1]; Patient 1 plasma sample) was “Probable”, the “Phenoscript Contribution” value ([1]; Patient 2 plasma sample) was “Possible” and the “Trugene Interpretation of resistances” value [2, 4] was “Resistance”. For the same compound, the “Trugene Interpretation of resistances” value [2, 5] was “Resistance”, the “Viroseq Evidence of resistance” value [3, 4] was “Possible” and the “Viroseq Evidence of resistance” value [3, 5] was “Possible”.

With Nc1nc(NC2CC2)c2ncn([C@H]3C=C[C@@H](CO)C3)c2n1 [ABC] the “Phenoscript Contribution” value ([1]; Patient 1 plasma sample) was “Possible”, the “Phenoscript Contribution” value ([1]; Patient 2 plasma sample) was “Possible” and the “Trugene Interpretation of resistances” value [2, 4] was “No resistance”. For the same compound, the “Trugene Interpretation of resistances” value [2, 5] was “Resistance”, the “Viroseq Evidence of resistance” value [3, 4] was “Possible” and the “Viroseq Evidence of resistance” value [3, 5] was “Possible”.

CC(C)CN(C[C@@H](O)[C@H](Cc1ccccc1)NC(=O)O[C@H]1CCOC1)S(=O)(=O)c1ccc(N)cc1 [APV] was tested, and the “Phenoscript Contribution” value ([1]; Patient 1 plasma sample) was “Probable”, the “Phenoscript Contribution” value ([1]; Patient 2 plasma sample) was “Probable” and the “Trugene Interpretation of resistances” value [2, 4] was “No resistance”. For the same compound, the “Trugene Interpretation of resistances” value [2, 5] was “No resistance”, the “Viroseq Evidence of resistance” value [3, 4] was “Zero” and the “Viroseq Evidence of resistance” value [3, 5] was “Zero”.

For O=C1Nc2ccc(Cl)cc2[C@@](C#CC2CC2)(C(F)(F)F)O1 [EFV], the “Phenoscript Contribution” value ([1]; Patient 1 plasma sample) was “Improbable”, the “Phenoscript Contribution” value ([1]; Patient 2 plasma sample) was “Probable” and the “Trugene Interpretation of resistances” value [2, 4] was “Resistance”. For the same compound, the “Trugene Interpretation of resistances” value [2, 5] was “No resistance”, the “Viroseq Evidence of resistance” value [3, 4] was “High” and the “Viroseq Evidence of resistance” value [3, 5] was “Zero”.

CC(C)c1nc(CN(C)C(=O)N[C@H](C(=O)N[C@@H](Cc2ccccc2)C[C@H](O)[C@H](Cc2ccccc2)NC(=O)OCc2cncs2)C(C)C)cs1 [RTV] was tested, and the “Trugene Interpretation of resistances” value [2, 4] was “No resistance”, the “Trugene Interpretation of resistances” value [2, 5] was “No resistance” and the “Viroseq Evidence of resistance” value [3, 4] was “Zero”. The “Viroseq Evidence of resistance” value [3, 5] was “Zero”.

Cc1c(O)cccc1C(=O)N[C@@H](CSc1ccccc1)[C@H](O)CN1C[C@H]2CCCC[C@H]2C[C@H]1C(=O)NC(C)(C)C [NFV] was tested, and the “Phenoscript Contribution” value ([1]; Patient 1 plasma sample) was “Probable”, the “Phenoscript Contribution” value ([1]; Patient 2 plasma sample) was “Probable” and the “Trugene Interpretation of resistances” value [2, 4] was “No resistance”. For the same compound, the “Trugene Interpretation of resistances” value [2, 5] was “No resistance”, the “Viroseq Evidence of resistance” value [3, 4] was “Zero” and the “Viroseq Evidence of resistance” value [3, 5] was “Possible”.

In the case of CC(C)OC(=O)OCOP(=O)(CO[C@H](C)Cn1cnc2c(N)ncnc21)OCOC(=O)OC(C)C.O=C(O)/C=C/C(=O)O [TDF], the “Trugene Interpretation of resistances” value [2, 4] is reported as “No resistance” and the “Trugene Interpretation of resistances” value [2, 5] is reported as “Resistance”.

For Cc1ccnc2c1NC(=O)c1cccnc1N2C1CC1 [NVP], the “Phenoscript Contribution” value ([1]; Patient 1 plasma sample) was “Improbable”, the “Phenoscript Contribution” value ([1]; Patient 2 plasma sample) was “Probable” and the “Trugene Interpretation of resistances” value [2, 4] was “Resistance”. For the same compound, the “Trugene Interpretation of resistances” value [2, 5] was “No resistance”, the “Viroseq Evidence of resistance” value [3, 4] was “High” and the “Viroseq Evidence of resistance” value [3, 5] was “Zero”.

In the case of Cc1cn([C@H]2C=C[C@@H](CO)O2)c(=O)[nH]c1=O [d4T], the “Phenoscript Contribution” value ([1]; Patient 1 plasma sample) is reported as “Probable”, the “Phenoscript Contribution” value ([1]; Patient 2 plasma sample) is reported as “Probable” and the “Trugene Interpretation of resistances” value [2, 4] is reported as “Resistance”. For the same compound, the “Trugene Interpretation of resistances” value [2, 5] was “Resistance”, the “Viroseq Evidence of resistance” value [3, 4] was “High” and the “Viroseq Evidence of resistance” value [3, 5] was “Possible”.

For CC(C)(C)NC(=O)[C@@H]1C[C@@H]2CCCC[C@@H]2CN1C[C@@H](O)[C@H](Cc1ccccc1)NC(=O)[C@H](CC(N)=O)NC(=O)c1ccc2ccccc2n1 [SQV], the “Phenoscript Contribution” value ([1]; Patient 1 plasma sample) was “Probable”, the “Phenoscript Contribution” value ([1]; Patient 2 plasma sample) was “Probable” and the “Trugene Interpretation of resistances” value [2, 4] was “No resistance”. For the same compound, the “Trugene Interpretation of resistances” value [2, 5] was “No resistance”, the “Viroseq Evidence of resistance” value [3, 4] was “Zero” and the “Viroseq Evidence of resistance” value [3, 5] was “Zero”.

With Cc1cn([C@H]2C[C@H](N=[N+]=[N-])[C@@H](CO)O2)c(=O)[nH]c1=O [AZT] the “Phenoscript Contribution” value ([1]; Patient 1 plasma sample) was “Improbable”, the “Phenoscript Contribution” value ([1]; Patient 2 plasma sample) was “Improbable” and the “Trugene Interpretation of resistances” value [2, 4] was “Resistance”. For the same compound, the “Trugene Interpretation of resistances” value [2, 5] was “Resistance”, the “Viroseq Evidence of resistance” value [3, 4] was “High” and the “Viroseq Evidence of resistance” value [3, 5] was “High”.
